Results on one compound are retold here after patent publication EP0351214A1, “Anti-inflammatory aryl derivatives” (THE WELLCOME FOUNDATION LIMITED, priority 1988, dated 1990).

The target of one experiment is T1, 5-lipoxygenase (5-LO) (Homo sapiens, UniProt P09917).
T1 construct: The leukocytes were homogenised and 5µM arachidonic acid added; from tissue; host or cells: homogenised leukocytes from blood of volunteers
T1 sequence (P09917 1-674): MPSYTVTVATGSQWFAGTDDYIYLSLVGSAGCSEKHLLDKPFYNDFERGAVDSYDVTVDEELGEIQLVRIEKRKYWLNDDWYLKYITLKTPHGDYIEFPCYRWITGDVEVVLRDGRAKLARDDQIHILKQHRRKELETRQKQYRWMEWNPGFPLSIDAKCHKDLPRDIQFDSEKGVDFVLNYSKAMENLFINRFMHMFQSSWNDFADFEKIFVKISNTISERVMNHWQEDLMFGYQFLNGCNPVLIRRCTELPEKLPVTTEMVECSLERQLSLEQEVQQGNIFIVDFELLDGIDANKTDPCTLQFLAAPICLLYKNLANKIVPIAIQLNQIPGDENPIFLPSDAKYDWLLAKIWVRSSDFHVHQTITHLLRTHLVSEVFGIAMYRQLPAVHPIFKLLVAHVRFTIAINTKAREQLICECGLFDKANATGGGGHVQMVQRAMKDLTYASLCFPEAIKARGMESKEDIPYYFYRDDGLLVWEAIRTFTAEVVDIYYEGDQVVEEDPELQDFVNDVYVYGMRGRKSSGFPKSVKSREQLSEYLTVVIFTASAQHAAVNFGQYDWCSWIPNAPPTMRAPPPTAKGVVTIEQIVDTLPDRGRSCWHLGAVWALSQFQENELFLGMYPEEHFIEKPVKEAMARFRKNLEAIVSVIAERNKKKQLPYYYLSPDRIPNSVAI
Kind of experiment: In vitro inhibition of 5-lipoxygenase (5-LO) in homogenised leukocytes, radioimmunoassay for leucotriene B4. In kind it is biochemical. The note with it: homogenised leukocytes from blood of normal aspirin-free volunteers; 5µM arachidonic acid, 37°C, 5 minutes; leucotriene B₄ by radioimmunoassay; read-out: IC₅₀(µM) activity LO. How it is done:
(§1) In vitro inhibition of 5-lipoxygenase (5-LO) and cyclo-oxygenase (CO)
(§2) Blood from normal aspirin-free volunteers was centrifuged to separate leukocytes from red cells and platelets. The leukocytes were homogenised and 5µM arachidonic acid added, followed by incubation at 37 °C for 5 minutes. The reaction was stopped by boiling and radioimmunoassays conducted for leucotriene B₄ and thromboxane B₂, products derived from 5-lipoxygenase and cyclo-oxygenase respectively. Results were calculated as IC₅₀(µM) activity against each enzyme.

For another experiment, the target named is T2, cyclo-oxygenase (CO) (Homo sapiens, UniProt P23219).
T2 construct: The leukocytes were homogenised and 5µM arachidonic acid added; from tissue; host or cells: homogenised leukocytes from blood of volunteers
T2 sequence (P23219 24-599): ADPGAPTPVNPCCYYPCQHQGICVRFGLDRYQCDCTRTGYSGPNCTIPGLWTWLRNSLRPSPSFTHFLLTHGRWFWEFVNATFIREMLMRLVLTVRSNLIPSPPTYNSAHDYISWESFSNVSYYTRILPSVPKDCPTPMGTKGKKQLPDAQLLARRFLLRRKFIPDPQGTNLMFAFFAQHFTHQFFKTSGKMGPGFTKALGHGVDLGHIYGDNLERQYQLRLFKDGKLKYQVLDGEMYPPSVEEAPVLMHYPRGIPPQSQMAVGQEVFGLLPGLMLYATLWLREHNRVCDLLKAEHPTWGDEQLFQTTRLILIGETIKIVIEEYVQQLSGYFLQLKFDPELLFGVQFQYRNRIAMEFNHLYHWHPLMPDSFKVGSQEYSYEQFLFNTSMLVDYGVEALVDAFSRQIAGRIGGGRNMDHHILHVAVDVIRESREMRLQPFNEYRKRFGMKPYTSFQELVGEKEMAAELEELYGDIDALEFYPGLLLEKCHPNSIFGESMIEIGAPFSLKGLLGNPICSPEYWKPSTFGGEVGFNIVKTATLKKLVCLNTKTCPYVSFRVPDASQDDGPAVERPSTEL
The experiment in a line: In vitro inhibition of cyclo-oxygenase (CO) in homogenised leukocytes, radioimmunoassay for thromboxane B2. In kind it is biochemical. As to conditions: homogenised leukocytes from blood of normal aspirin-free volunteers; 5µM arachidonic acid, 37°C, 5 minutes; thromboxane B₂ by radioimmunoassay; read-out: IC₅₀(µM) activity CO. How it is done: as §1, §2

Regarding `CC(=O)N(O)[C@@H](C)/C=C/c1cccc(Oc2ccc(F)cc2)c1` [Synthetic Example, (E)-N-{1(S)-methyl-3-[3-(4-fluorophenoxy)phenyl]prop-2-en-1-yl}acetohydroxamic acid], the IC50 at 5-lipoxygenase (5-LO) turned out to be 0.15 µM; at cyclo-oxygenase (CO), 3 µM.
